In patent US12281057B2 (VERTEX PHARMACEUTICALS INCORPORATED, priority 2017, dated 2025):

molecular target: truncated form of human NaV 1.8 with full channel activity (Homo sapiens, UniProt Q9Y5Y9); assay: E-VIPR Assay Method B for detecting and measuring Nav inhibition (HEK cells, membrane potential FRET dyes, electrical stimulation); type: cell-based; conditions: HEK cells expressing human NaV 1.8, Table 20B, read-out: Nav 1.8 MedChem Optical Assay EVIPR Assay Method B HS IC50
From the text: [formula] where X is the ratio response of the test compound. […] E-VIPR Assay Method B for Detecting and Measuring Nav Inhibition Properties Sodium ion channels are voltage-dependent proteins that can be activated by inducing membrane voltage changes by applying electric fields. The electrical stimulation instrument and methods of use, referred to as E-VIPR, are described in International Publication No. WO 2002/008748 A3 and C.-J. Huang et al. Characterization of voltage-gated sodium channel blockers by electrical stimulation and fluorescence detection of membrane potential, 24 Nature Biotech. 439-46 (2006), both of which are incorporated by reference in their entirety. The instrument comprises a microtiter plate handler, an optical system for exciting the coumarin dye while simultaneously recording the coumarin and oxonol emissions, a waveform generator, a current- or voltage-controlled amplifier, and parallel electrode pairs that are inserted into assay plate wells. Under integrated computer control, this instrument passes user-programmed electrical stimulus protocols to cells within the wells of the microtiter plate. […] Sigma #F4135), 1% NEAA (Non-Essential Amino Acids, Life Tech #11140), 1% HEPES (Life Tech #15630), 1% Pen-Strep (Penicillin-Streptomycin; […] Cells were expanded in vented cap flasks, with 95% humidity and 5% CO2. Reagents and Stock Solutions: • 100 mg/mL Pluronic F-127 (Sigma #P2443), in dry DMSO • Compound Plates: […] 5% KIR 2.1 Bacmam virus (produced in-house), prepared as described in Section 3.3 of J. A. Fornwald et al., Gene Expression in Mammalian Cells Using BacMam, a Modified Baculovirus System, 1350 Methods in Molecular Biology 95-116 (2016), the entire contents of which are incorporated by reference. • 5 mM DiSBAC6(3) (a voltage sensitive oxonol acceptor) (Aurora #00-100-010) in dry DMSO • 5 mM CC2-DMPE (a membrane-bound coumarin phospholipid FRET donor) (Aurora #00-100-008) in dry DMSO • 89 mM VABSC-1 in H2O. […] The solution was made by adding 10% Pluronic F127 stock equal to combined volumes of CC2-DMPE and DiSBAC6(3). The order of preparation was first mix Pluronic and CC2-DMPE, then add DiSBAC6(3), then while vortexing add Bath1/β-Cyclodextrin. […] Assay Protocol: […] Final DMSO concentration for all wells in the assay was 0.625% (0.75% DMSO was supplemented to the Compound Loading Buffer for a final DMSO concentration of 0.625%). 2) Hexyl Dye Solution was prepared. 3) Cell plates were prepared. On the day of the assay, the media was aspirated, and the cells were washed three times with 80 μL of Bath-1 buffer, maintaining 25 μL residual volume in each well. 4) 25 μL per well of Hexyl Dye Solution was dispensed into the cell plates. The cells were incubated for 20 minutes at room temp or ambient conditions in darkness. 5) 80 μL per well of Compound Loading Buffer was dispensed into compound plates. […] The mixture was incubated for 30 minutes at room temp/ambient conditions. […] A pre-stimulus recording was performed for 0.5 seconds to obtain the un-stimulated intensities baseline. The stimulatory waveform was followed by 0.5 seconds of post-stimulation recording to examine the relaxation to the resting state. Data Analysis: Data were analyzed and reported as normalized ratios of emission intensities measured in the 460 nm and 580 nm channels. The response as a function of time was reported as the ratios obtained using the following formula: [formula] The data were further reduced by calculating the initial (Ri) and final (Rf) ratios. These were the average ratio values during part or all of the pre-stimulation period and during sample points during the stimulation period. The fluorescence ratio (Rf/Ri) was then calculated and reported as a function of time. Control responses were obtained by performing assays in the presence of the positive control, and in the absence of pharmacological agents (DMSO vehicle negative control). Responses to the negative (N) and positive (P) controls were calculated as above. […]

Chain of truncated form of human NaV 1.8 with full channel activity (Q9Y5Y9 126-1722 limits assumed): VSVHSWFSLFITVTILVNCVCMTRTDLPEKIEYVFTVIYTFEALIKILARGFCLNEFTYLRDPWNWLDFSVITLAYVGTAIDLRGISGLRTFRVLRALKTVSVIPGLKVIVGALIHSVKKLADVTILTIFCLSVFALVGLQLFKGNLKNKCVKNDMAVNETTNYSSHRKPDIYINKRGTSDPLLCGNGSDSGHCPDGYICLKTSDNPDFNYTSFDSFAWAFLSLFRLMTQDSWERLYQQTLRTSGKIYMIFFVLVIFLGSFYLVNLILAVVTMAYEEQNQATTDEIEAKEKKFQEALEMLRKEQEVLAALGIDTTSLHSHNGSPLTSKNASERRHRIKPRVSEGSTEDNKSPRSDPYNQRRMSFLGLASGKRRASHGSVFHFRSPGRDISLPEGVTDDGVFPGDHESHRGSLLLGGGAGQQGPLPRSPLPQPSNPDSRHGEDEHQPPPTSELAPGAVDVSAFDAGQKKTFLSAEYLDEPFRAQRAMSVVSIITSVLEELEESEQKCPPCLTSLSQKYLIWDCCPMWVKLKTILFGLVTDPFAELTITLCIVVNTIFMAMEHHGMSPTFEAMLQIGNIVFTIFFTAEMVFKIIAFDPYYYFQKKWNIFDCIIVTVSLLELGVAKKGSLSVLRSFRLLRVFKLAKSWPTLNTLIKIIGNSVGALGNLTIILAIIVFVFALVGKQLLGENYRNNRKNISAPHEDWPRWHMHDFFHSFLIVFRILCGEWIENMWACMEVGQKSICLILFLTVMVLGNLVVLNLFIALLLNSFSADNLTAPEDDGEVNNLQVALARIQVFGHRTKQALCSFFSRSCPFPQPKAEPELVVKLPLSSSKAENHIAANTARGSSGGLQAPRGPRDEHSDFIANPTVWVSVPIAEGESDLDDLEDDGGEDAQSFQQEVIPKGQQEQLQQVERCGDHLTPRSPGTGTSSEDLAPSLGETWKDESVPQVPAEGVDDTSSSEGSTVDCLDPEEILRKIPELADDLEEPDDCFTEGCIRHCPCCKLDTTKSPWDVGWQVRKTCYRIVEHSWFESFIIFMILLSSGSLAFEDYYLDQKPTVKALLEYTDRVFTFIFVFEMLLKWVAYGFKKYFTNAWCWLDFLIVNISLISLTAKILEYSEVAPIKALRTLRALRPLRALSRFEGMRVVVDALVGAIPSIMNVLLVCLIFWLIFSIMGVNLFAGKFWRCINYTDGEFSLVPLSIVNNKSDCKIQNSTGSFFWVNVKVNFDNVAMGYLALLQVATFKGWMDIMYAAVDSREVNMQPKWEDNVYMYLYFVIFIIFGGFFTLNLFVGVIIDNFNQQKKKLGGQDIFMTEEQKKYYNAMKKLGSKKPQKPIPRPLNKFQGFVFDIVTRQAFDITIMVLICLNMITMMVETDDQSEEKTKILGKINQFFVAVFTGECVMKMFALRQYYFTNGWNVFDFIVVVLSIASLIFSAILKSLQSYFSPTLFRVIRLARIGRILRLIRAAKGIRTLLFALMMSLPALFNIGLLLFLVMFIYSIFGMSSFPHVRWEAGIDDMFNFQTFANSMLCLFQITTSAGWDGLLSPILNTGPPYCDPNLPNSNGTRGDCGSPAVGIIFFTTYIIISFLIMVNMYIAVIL

IC50	SMILES
21 nM	COc1c(F)cccc1Oc1ccc(C(F)(F)F)cc1C(=O)Nc1cccc(C(N)=O)c1 [Compound 278, N-(3-carbamoylphenyl)-2-(3-fluoro-2-methoxyphenoxy)-5-(trifluoromethyl)benzamide]
56 nM	COc1ccc(Oc2ccc(C(F)(F)F)cc2C(=O)Nc2cccc(C(N)=O)c2)c(Cl)c1 [Compound 279, N-(3-carbamoylphenyl)-2-(2-chloro-4-methoxyphenoxy)-5-(trifluoromethyl)benzamide]
270 nM	COc1ccc(NC(=O)c2cc(C(F)(F)F)ccc2Oc2ccc(F)cc2C)cc1C(N)=O [Compound 292, N-(3-carbamoyl-4-methoxyphenyl)-2-(4-fluoro-2-methylphenoxy)-5-(trifluoromethyl)benzamide]
11 nM	COc1cc(F)ccc1Oc1cc(C(F)(F)C(F)(F)F)ccc1C(=O)Nc1cccc(C(N)=O)c1 [Compound 248, N-(3-carbamoylphenyl)-2-(4-fluoro-2-methoxyphenoxy)-4-(1,1,2,2,2-pentafluoroethyl)benzamide]
33 nM	Cc1cc(F)ccc1Oc1ccc(C(F)(F)F)cc1C(=O)Nc1ccc(Cl)c(C(N)=O)c1 [Compound 293, N-(3-carbamoyl-4-chlorophenyl)-2-(4-fluoro-2-methylphenoxy)-5-(trifluoromethyl)benzamide]
91 nM	COc1ccc(Oc2cc(C(F)(F)C(F)(F)F)ccc2C(=O)Nc2cccc(C(N)=O)c2)c(Cl)c1 [Compound 251, N-(3-carbamoylphenyl)-2-(2-chloro-4-methoxyphenoxy)-4-(1,1,2,2,2-pentafluoroethyl)benzamide]
1200 nM	CC(C)(C)c1ccc(C(=O)Nc2cncc(C(N)=O)c2)c(Oc2ccc(C(F)(F)F)nc2)c1 [Compound 261, 5-(4-(tert-butyl)-2-((6-(trifluoromethyl)pyridin-3-yl)oxy)benzamido)nicotinamide]
33 nM	COc1cc(Cl)ccc1Oc1cc(C(F)(F)C(F)(F)F)ccc1C(=O)Nc1cccc(C(N)=O)c1 [Compound 247, N-(3-carbamoylphenyl)-2-(4-chloro-2-methoxyphenoxy)-4-(1,1,2,2,2-pentafluoroethyl)benzamide]
36 nM	COc1ccc(Oc2cc(C(F)(F)C(F)(F)F)ccc2C(=O)Nc2cccc(C(N)=O)c2)c(OC)c1 [Compound 252, N-(3-carbamoylphenyl)-2-(2,4-dimethoxyphenoxy)-4-(1,1,2,2,2-pentafluoroethyl)benzamide]
20 nM	COc1ccc(Oc2cc(Cl)c(Cl)cc2C(=O)Nc2cccc(C(N)=O)c2)cc1F [Compound 271, N-(3-carbamoylphenyl)-4,5-dichloro-2-(3-fluoro-4-methoxy-phenoxy)benzamide]
60 nM	NC(=O)c1cccc(NC(=O)c2ccc(C(F)(F)C(F)(F)F)cc2Oc2ccc(F)cc2)c1 [Compound 249, N-(3-carbamoylphenyl)-2-(4-fluorophenoxy)-4-(1,1,2,2,2-pentafluoroethyl)benzamide]
42 nM	COc1ccc(Oc2ccc(C(F)(F)F)cc2C(=O)Nc2cccc(C(N)=O)c2)c(C)c1 [Compound 280, N-(3-carbamoylphenyl)-2-(4-methoxy-2-methylphenoxy)-5-(trifluoromethyl)benzamide]
9 nM	COc1ccc(Oc2cc(Cl)c(Cl)cc2C(=O)Nc2cccc(C(N)=O)c2)c(OC)c1 [Compound 269, N-(3-carbamoylphenyl)-4,5-dichloro-2-(2,4-dimethoxyphenoxy)benzamide]
14 nM	NC(=O)c1cccc(NC(=O)c2cc(Cl)c(Cl)cc2Oc2ccc(F)cc2)c1 [Compound 268, N-(3-carbamoylphenyl)-4,5-dichloro-2-(4-fluorophenoxy)benzamide]
20 nM	COc1cc(Cl)ccc1Oc1ccc(C(F)(F)F)cc1C(=O)Nc1cccc(C(N)=O)c1 [Compound 286, N-(3-carbamoylphenyl)-2-(4-chloro-2-methoxyphenoxy)-5-(trifluoromethyl)benzamide]
40 nM	Cc1cc(F)ccc1Oc1ccc(C(F)(F)F)cc1C(=O)Nc1ccc(C(N)=O)cc1 [Compound 297]
